Results from patent US20110300570A1, “METHOD AND SYSTEM FOR GENERATING SPATIALLY AND TEMPORALLY CONTROLLABLE CONCENTRATION GRADIENTS” (THE BRIGHAM AND WOMEN'S HOSPITAL, INC., priority 2008, published 2011).

Experiments:
HL-1 cells [1] = assay: Cytotoxicity testing with HL-1 cells seeded in a 96-well plate; type: cell-based; conditions: HL-1 cells in 96-well plate, various concentrations of toxin
Description: In this example, the stabilized, spatially and temporally controllable concentration gradient technique is utilized for cytotoxicity testing. A cardiac muscle cell line (HL-1) is used to investigate the cytotoxicity of Alpha-cypermethrin, a cardiac toxin. Three drops of 2 μL medium containing 20 mM Alpha-cypermethrin were loaded consecutively into the micro-devices with HL-1 cells seeded along the channel. […] The cytotoxicity of the toxin gradient was further tested on the HL-1 cells by conducting a live-dead assay. […] According to the correlation between cell viability and morphology changes with respect to Alpha-cypermethrin concentration obtained from the toxicity testing on HL-1 cells seeded in 96-well plates, the experimental conditions used in this example established a concentration gradient of the toxin from 12.5 mM to 0 mM along the 5 cm-length channel based on the assay conducted in this example.

HL-1 cells [2] = assay: Cytotoxicity testing of a stabilized toxin concentration gradient on HL-1 cells in the microfluidic channel; type: cell-based
Description: HL-1 cells (Cardiac muscle cell line) were cultured with medium containing 87% Claycomb Medium, 10% Fetal Bovine Serum (FBS), 1% Penicillin/Streptomycin, 1% Norepinephrine, and 1% L-Glutamine at 37° C. in a humidified 5% CO2/95% air incubator. To enhance the cell adhesion, the bottom glass slide was coated with a mixture of extracellular matrix (0.02% gelatin (w/w) and 5 μg/mL fibronectin) after the top channel was bonded to the bottom glass slide. To seed the cells into the microfluidic device, the cells were trypsinized and seeded through the outlet port using dynamic seeding at a cell density of 2×10^6 cells mL-1 that allowed uniform cell distribution. Cells were cultured for 2 h to ensure attachment. The medium was then changed and 3 drops of 2 μL medium containing 20 mM Alpha-cypermethrin were introduced by passive pumping and a concentration gradient was established by leaving the microfluidic device in the hood for 5 min to allow for evaporation-induced backflow. The microfluidic device was then transferred to a humidified incubator where the concentration gradient of the toxin was stabilized and the cells were treated for 4 h. […] ImageJ was used to quantify the fluorescence images of live-dead staining of the cells. At least three images were used for quantification of the cell viability. […]

Q: Which results are given for `CC1(C)C(C=C(Cl)Cl)C1C(=O)OC(C#N)c1cccc(Oc2ccccc2)c1` (stereo not drawn) [Alpha-cypermethrin]?
A: cell morphology (HL-1 cells [1]): drastic morphological change; cell morphology along the channel (HL-1 cells [2]; HL-1 cells exposed 4 h to toxin gradient (loaded 20 mM; gradient 12.5 mM to 0 mM along 5 cm channel)): more severe effects observed in the regions containing higher concentrations of toxin; cell viability (live-dead assay) (HL-1 cells [2]; HL-1 cells exposed 4 h to toxin gradient along the channel): correlation of cell viability was found with the toxin concentration gradient
